Data reported in patent publication US20190117547A1, “COSMETIC COMPOSITIONS COMPRISING SCLAREOLIDE” (SYMRISE AG, priority 2016, published 2019).

Tests used:
Type in all cases: cell-based
[1] = system: Human epidermal melanoma cells A375; assay: Basal melanin formation in vitro; settings: for melanin: basal (no irradiation)
Procedure: Human epidermal melanoma cells A375 were cultured in 6-well plates. […] 48 h prior to and past to the irradiation the cells were treated with test compounds in non-cytotoxic concentrations. Melanocytes were lysed in a solution of NaOH. Melanin was quantified by measurement of absorbance at 405 nm and calculation based on a melanin standard curve.

[2] = system: Human epidermal melanoma cells A375; assay: Visible light induced hyperpigmentation in vitro; settings: for Inhibition vs visible light induced / melanin: visible light 480 J/cm2
Procedure: Human epidermal melanoma cells A375 were cultured in 6-well plates. The cells were exposed to visible light (480 J/cm2) with Hydrosun 750 equipped with KG1 filter. 48 h prior to and past to the irradiation the cells were treated with test compounds in non-cytotoxic concentrations. Melanocytes were lysed in a solution of NaOH. Melanin was quantified by measurement of absorbance at 405 nm and calculation based on a melanin standard curve.

[3] = system: ex vivo human skin explants; assay: Melanin formation after visible light irradiation on ex vivo human skin; settings: for Inhibition vs Placebo: skin explants, visible light 480 J/cm2; for % of melanin: topical on skin explants, visible light 480 J/cm2, Fontana-Masson stain
Procedure: The below formulations were applied on ex vivo human skin explants from abdominal surgery of a donor with phototype IV (Fitzpatrick scale). 48 h after the formulations were removed with a cotton pad. Skin explants were exposed to visible light (480 J/cm2) with Hydrosun 750 equipped with KG1 filter. Formulations were reapplied afterwards. 48 h later skin sections were prepared and melanin was stained by Fontana-Masson stain. Quantification of melanin was done by image analysis.

EDN1(endothelin 1) = assay: UVB induced gene expression (RTq PCR), EDN1; settings: HaCaT cells, 50 μM Sclareolide, 20 mJ/cm^2 UVB, 24 hours; normalized to HPRT1 (UVB alone 22.7)
Procedure: (§1) HaCaT cells are seeded into a 12-well plate with 2.0×10^5 cells/well. After incubation over night the test compound (50 μM Sclareolide) is added to the cells and the plate is incubated for two more hours. Then cells are washed with PBS and irradiated with 20 mJ/cm^2 UVB (UVITEC Cambridge, 312 nm). PBS is removed and medium (control and with test compound) added. Cells are incubated for 24 hours. RNA is extracted and purified using the RNeasy kit (Qiagen) according to the manufacturer's instructions. The RNA concentration is determined with a photometer (Eppendorf) and 2 μg are used for reverse transcription, that is performed with the TaqMan® MicroRNACells-to-CT™ Kit (Ambion) like described in the user manual. Quantitative real time PCR is performed using the Applied Biosystems StepOne™ with customized TaqMan® Array Fast Plates with following primers: HPRT1 (hypoxanthine phosphoribosyltransferase 1) as housekeeping gene, EDN1(endothelin 1), CXCL1 (C—X—C motif chemokine ligand 1), IL6 (interleukin 6) and IL8 (C—X—C motif chemokine ligand 8). Target gene transcript levels are normalized to the HPRT1 transcript level and the relative transcript changes are calculated using the RQ=2-ΔΔCt method.

[4] = system: CXCL1 (C—X—C motif chemokine ligand 1); assay: UVB induced gene expression (RTq PCR), CXCL1; settings: HaCaT cells, 50 μM Sclareolide, 20 mJ/cm^2 UVB, 24 hours; normalized to HPRT1 (UVB alone 5.4)
Procedure: as §1

[5] = system: IL8 (C—X—C motif chemokine ligand 8); assay: UVB induced gene expression (RTq PCR), IL8; settings: HaCaT cells, 50 μM Sclareolide, 20 mJ/cm^2 UVB, 24 hours; normalized to HPRT1 (UVB alone 17.9)
Procedure: as §1

IL6 (interleukin 6) = assay: UVB induced gene expression (RTq PCR), IL6; settings: HaCaT cells, 50 μM Sclareolide, 20 mJ/cm^2 UVB, 24 hours; normalized to HPRT1 (UVB alone 8.4)
Procedure: as §1

[6] = system: genes well-known for the induction of hyperpigmentation; assay: UVB induced gene expression (RTq PCR), overall statement; settings: HaCaT cells, 50 μM Sclareolide, summary in words
Procedure: as §1

[7] = 0.05% sclareolide formulation (C)
[8] = 0.2% sclareolide formulation (B)

CC1(C)CCC[C@]2(C)C3CC(=O)O[C@]3(C)CC[C@@H]12 (stereo partly drawn) [sclareolide, (3aR,5aS,9aS,9bR)-deca hydro-3a,6,6,9a-tetramethylnaphtha[2,1-b]furan-2(1H)-one]
melanin ([1]; 3.16 μM sclareolide): 0.7775 ± 0.0412 µg | melanin ([1]; 10 μM sclareolide): 0.6554 ± 0.0408 µg | melanin ([1]; 31.6 μM sclareolide): 0.8851 ± 0.0579 µg | effect on basal melanin formation ([1]; summary in words): no effect | Inhibition vs visible light induced ([2]; 3.16 μM sclareolide): 18% | melanin ([2]; 3.16 μM sclareolide): 0.8784 ± 0.0293 µg | Inhibition vs visible light induced ([2]; 10 μM sclareolide): 67% | melanin ([2]; 10 μM sclareolide): 0.6306 ± 0.0675 µg | Inhibition vs visible light induced ([2]; 31.6 μM sclareolide): 70% | melanin ([2]; 31.6 μM sclareolide): 0.6106 ± 0.0658 µg | inhibition of visible light induced hyperpigmentation ([2]; summary in words): significantly inhibits | Inhibition vs Placebo [3, 7]: 1.2% | % of melanin [3, 7]: 61.33 ± 2.2% | Inhibition vs Placebo [3, 8]: 32.4% | % of melanin [3, 8]: 52.46 ± 2.9% | RQ EDN1 (EDN1(endothelin 1)): 11.9 | RQ CXCL1 [4]: 2.8 | RQ IL8 [5]: 10.3 | RQ IL6 (IL6 (interleukin 6)): 5.7 | inhibition of UVB induced upregulation of genes [6]: inhibits
